These compounds were tested against Egl nine homolog 1 (Homo sapiens, UniProt Q9GZT9) (assay: Inhibition of human PHD2 assessed as hydroxylation of Pro564 in human HIF-1alpha by TR-FRET assay).
Egl nine homolog 1, sequence (Q9GZT9 whole entry): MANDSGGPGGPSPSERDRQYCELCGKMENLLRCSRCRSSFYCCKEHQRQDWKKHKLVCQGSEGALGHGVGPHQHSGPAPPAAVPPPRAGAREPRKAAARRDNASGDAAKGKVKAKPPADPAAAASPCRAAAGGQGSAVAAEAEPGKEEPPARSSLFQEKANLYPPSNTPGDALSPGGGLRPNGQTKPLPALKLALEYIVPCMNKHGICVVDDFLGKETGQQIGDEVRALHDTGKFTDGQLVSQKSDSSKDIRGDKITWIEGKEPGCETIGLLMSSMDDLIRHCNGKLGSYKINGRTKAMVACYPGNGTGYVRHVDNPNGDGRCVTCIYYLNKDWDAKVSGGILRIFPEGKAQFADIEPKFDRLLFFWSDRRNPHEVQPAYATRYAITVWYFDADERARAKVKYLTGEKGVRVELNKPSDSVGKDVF

IC50, > 40 µM:
O=C(O)Cc1csc(NC(=O)CS(=O)(=O)c2ccccc2)n1
O=C(O)Cc1cs/c(=N/C(=O)CCc2ccccc2)n1O
CC(C)(C(=O)O)c1cs/c(=N/C(=O)CS(=O)(=O)c2ccccc2)n1O
CCOC(=O)Cc1cs/c(=N/C(=O)CS(=O)(=O)c2ccccc2)n1O
CCOC(=O)Cc1csc(NC(=O)CS(=O)(=O)c2ccccc2)n1

— ChEMBL document CHEMBL1155087, “Discovery of novel hydroxy-thiazoles as HIF-alpha prolyl hydroxylase inhibitors: SAR, synthesis, and modeling evaluation” (Bioorg Med Chem Lett, 2008)
